Counter-ions that a name gives are not always drawn.
Key:
5-HT4 receptor [1] = molecular target: 5-HT4 receptor (Rattus norvegicus, UniProt Q62758); experiment: cell-based; conditions: rat esophagus TMM contracted with carbachol (3 μM), 37° C., cumulative addition; read-out: 5-HT4 Agonism (Rat TMM) In Vitro Assay: EC50 values
Experimental: (§1) The 5-HT4 agonist activity was determined in the in vitro rat tunica muscularis mucosae (TMM) assay described herein. (Baxter et al., Naunyn Schmied Arch. Pharmacol, 1991, 343, 439). […] One with skill in the art could determine the activity of the compounds of the present invention using the methodology of these assays, described herein, without undue experimentation.
Agonist activity was determined utilizing relaxation of carbachol-contracted rat tunica muscularis mucosae (TMM). One 2 cm segment of intrathoracic esophagus proximal to the diaphragm was removed from male rats, weighing approximately 300 gm, and the outer muscle layers removed. The inner tunica muscularis mucosa was mounted under 0.2-0.3 g of tension in a tissue bath containing oxygenated Tyrode's solution at 37° C. […] Following a 30 min equilibrium period, tissues were isometrically contracted with carbachol (3 μM) to obtain a tonic contraction. A stable plateau was obtained within 20 min when test compound was added cumulatively to relax the muscle strip. EC50 values were obtained for each compound in tissues from 5 rats.

myenteric neurons = conditions: Nemeth and Gullikson 1989; cited from earlier work
5-HT4 receptors = conditions: Craig and Clarke; cited from earlier work
5-HT4 receptor [2] = conditions: Dumuis et al. 1989, mouse embryonic colliculi neurons; cited from earlier work
dogs = conditions: cited from earlier work; for antroduodenal motility in dogs: Van Nueten et al. 1989
5-HT3 receptor = molecular target: T1, 5-HT3 receptor (Rattus norvegicus, UniProt P35563); experiment: 5-HT3 radioligand receptor binding assay ([3H]-GR65630), rat brain cortex membranes
T1 construct: Brain cortices were obtained from male rats and a membrane fraction prepared by standard techniques; from tissue; host or cells: male rat brain cortex membranes
T1 sequence (P35563 24-483): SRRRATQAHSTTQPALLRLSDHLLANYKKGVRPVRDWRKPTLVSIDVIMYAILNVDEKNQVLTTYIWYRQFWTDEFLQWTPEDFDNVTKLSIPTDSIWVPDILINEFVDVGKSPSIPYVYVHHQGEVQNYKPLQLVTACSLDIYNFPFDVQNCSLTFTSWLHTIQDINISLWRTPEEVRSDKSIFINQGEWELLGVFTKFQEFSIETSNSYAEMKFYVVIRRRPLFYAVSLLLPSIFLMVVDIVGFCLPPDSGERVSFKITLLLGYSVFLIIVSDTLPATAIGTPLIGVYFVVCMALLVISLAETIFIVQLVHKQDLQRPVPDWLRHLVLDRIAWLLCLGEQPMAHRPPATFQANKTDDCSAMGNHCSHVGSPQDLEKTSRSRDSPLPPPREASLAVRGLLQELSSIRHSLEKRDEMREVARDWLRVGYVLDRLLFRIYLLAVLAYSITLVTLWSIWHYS
Experimental: as §1
Procedure: GR65630 binds to the 5-HT3 receptor. Brain cortices were obtained from male rats and a membrane fraction prepared by standard techniques. 0.04 mg of membrane prep was incubated with 0.2 nM [^3 H]-GR65630 for 66 minutes at 22° C. […] Membranes were filtered and washed 3 times and the filters were counted to determine [^3 H]-GR65630 specifically bound. [Kilpatrick GJ, Jones BJ and Tyers MB, Identification and Distribution of 5-HT3 Receptors in Rat Brain Using Radioligand Binding Assay, Nature, 330, 746-748 (1987)].

gastric emptying [3] = conditions: Gidda et al. 1988; cited from earlier work
man [4] = conditions: Talley et al. 1989, man; cited from earlier work
man [5] = conditions: Gore et al. 1990, man; cited from earlier work
[6] = tested on: guinea pig stomach muscle strips; conditions: cited from earlier work; for guinea pig stomach muscle strip contraction in vitro: Buchheit et al. 1985
gastric emptying [7] = conditions: Buchheit et al. 1985; cited from earlier work
GI tract = conditions: various animal models; cited from earlier work
5-HT3 = conditions: in vivo; cited from earlier work

Sequence of 5-HT4 receptor (Rattus norvegicus, UniProt Q62758) (Q62758 whole entry): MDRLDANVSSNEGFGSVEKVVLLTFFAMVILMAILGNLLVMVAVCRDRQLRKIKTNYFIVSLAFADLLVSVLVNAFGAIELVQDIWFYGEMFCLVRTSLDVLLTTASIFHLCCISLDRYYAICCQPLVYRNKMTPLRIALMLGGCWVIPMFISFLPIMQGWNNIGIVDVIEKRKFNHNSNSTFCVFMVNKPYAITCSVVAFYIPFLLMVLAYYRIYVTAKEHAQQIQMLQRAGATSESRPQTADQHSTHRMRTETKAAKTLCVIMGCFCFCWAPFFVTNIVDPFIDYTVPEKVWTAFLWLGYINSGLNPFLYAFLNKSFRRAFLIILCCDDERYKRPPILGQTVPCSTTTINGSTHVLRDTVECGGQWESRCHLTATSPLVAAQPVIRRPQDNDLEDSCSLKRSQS

Question: For `CC1(C)C(=O)N(C(=O)NC[C@@H]2CCN3CCC[C@@H]23)c2ccccc21` (relative stereo) [Example 8, Exo-2,3-dihydro-3,3-dimethyl-N-[(hexahydro-1H-pyrrolizin-1S-yl)methyl]-2-oxo-1H-indole-1carboxamide, hydrate hydrochloride], which EC50 (5-HT4 receptor [1]) is on record?
Answer: > 10 µM

Question: With `COc1cc(N)c(Cl)cc1C(=O)NC1CCN2CCCC1C2` (centres unmarked) [BRL-24924] as the compound, how does the “ability to depolarize myenteric neurons, relation to 5-HT3 antagonism” value (myenteric neurons) read?
Answer: unrelated to their properties of 5-HT3 antagonism

Question: And the “peristaltic reflex evoked, receptor mechanism” value (5-HT4 receptors)?
Answer: mediated through agonism at 5-HT4 receptors

Question: What about the “prokinetic activity, correlation with agonist activity at 5-HT4 receptor” value (5-HT4 receptor [2]) of the same compound?
Answer: correlate with agonist activity

Question: Which results are given for `COc1cc(N)c(Cl)cc1C(=O)NC1CCN(CCCOc2ccc(F)cc2)CC1OC` (centres unmarked) [Cisapride]?
Answer: ability to depolarize myenteric neurons, relation to 5-HT3 antagonism (myenteric neurons): unrelated to their properties of 5-HT3 antagonism; prokinetic activity, correlation with agonist activity at 5-HT4 receptor (5-HT4 receptor [2]): correlate with agonist activity; antroduodenal motility in dogs (dogs): enhanced

Question: For `CN1[C@@H]2CC[C@H]1C[C@@H](NC(=O)N1C(=O)C(C)(C)c3ccccc31)C2` [Example 1, Endo-2,3-dihydro-3,3-dimethyl-N-(8-methyl-8-azabicyclo[3.2.1]octan-3-yl)-2-oxo-1H-indole-1-carboxamide, hydrochloride hydrate], which EC50 (5-HT4 receptor [1]) is on record?
Answer: 1.21 µM

Question: What about the Ki (5-HT3 receptor) of the same compound?
Answer: 0.004 µM

Question: For `CN1[C@@H]2CC[C@H]1C[C@@H](NC(=O)N1C(=O)C3(CC3)c3ccccc31)C2` [Example 2, Endo-1',2'-dihydro-N-(8-methyl-8-azabicyclo[3.2.1 octan-3-yl)-2'-oxo-spiro[cyclopropane-1,3'-(3'H)-indole]-1'-carboxamide, hydrate hydrochloride], which EC50 (5-HT4 receptor [1]) is on record?
Answer: 0.79 µM

Question: What about the Ki (5-HT3 receptor) of the same compound?
Answer: 0.0041 µM

Question: Which EC50 (5-HT4 receptor [1]) does the source give for `O=C(N[C@@H]1[C@@H]2CC3C[C@H]1CN(C3)C2)N1C(=O)C2(CC2)c2ccccc21` [Example 3, Anti-N-(1-azatricyclo[3.3.1.1^3,7]decan-4-yl)-2'-oxo-spiro[cyclopropane-1,3'-[3'H]indole]-1'(2'H)-carboxamide, monohydrochloride] here?
Answer: 2.22 µM

Question: With `O=C(N[C@H]1[C@@H]2CC3C[C@H]1CN(C3)C2)N1C(=O)C2(CC2)c2ccccc21` [Example 4, Syn-N-(1-azatricyclo[3.3.1.1^3,7]decan-4-yl)-2'-oxo-spiro[cyclopropane-1,3'-[3'H]indole]-1'(2'H)-carboxamide, monohydrochloride] as the compound, how does the EC50 (5-HT4 receptor [1]) read?
Answer: 2.53 µM

Question: For `O=C(NCC12CCN(CC1)CC2)N1C(=O)C2(CC2)c2ccccc21` [Example 5, N-(1-azabicyclo[2.2.2]octan-4-ylmethyl)-2'-oxo-spiro[cyclopropane-1,3'-[3'H]indole]-1'(2'H)-carboxamide, monohydrochloride], which EC50 (5-HT4 receptor [1]) is on record?
Answer: > 10 µM

Question: With `O=C(NCC12CCCN1CCC2)N1C(=O)C2(CC2)c2ccccc21` [Example 6, 2'-oxo-N-[(hexahydro-1H-pyrrolizin-7a(5H)-yl)-methyl]spiro[cyclopropane-1,3'-[3'H]indole]1'(2'H)carboxamide, monohydrochloride] as the compound, how does the EC50 (5-HT4 receptor [1]) read?
Answer: > 10 µM

Question: With `O=C(NCCC12CCCN1CCC2)N1C(=O)C2(CC2)c2ccccc21` [Example 7, 2'-oxo-N-[2-(hexahydro-1H-pyrrolizin-7a(5H)yl)ethyl]spiro[cyclopropane-1,3'-[3'H]indole-1'(2'H)-carboxamide, monohydrochloride] as the compound, how does the EC50 (5-HT4 receptor [1]) read?
Answer: 7.92 µM

Question: Which results are given for `Cc1nccn1CC1CCc2c(c3ccccc3n2C)C1=O` (centres unmarked) [GR38032]?
Answer: gastric emptying (gastric emptying [3]): enhanced; effect on GI transit in man (conclusion) (man [4]): does not have a major effect on GI transit in man; mouth-to-cecum transit times (man [4]): did not alter; small intestinal transit times (man [4]): did not alter; GI transit (man [5]): failed to accelerate; colonic transit in man (man [5]): slowed

Question: For `Cc1[nH]cnc1CCC(=O)c1cn(C)c2ccccc12` [GR65630], which Bmax (5-HT3 receptor; [3H]-GR65630 radioligand, rat brain cortex membranes) is on record?
Answer: 154 fmol/mg protein

Question: And the “% Specific Binding” value (5-HT3 receptor; [3H]-GR65630 radioligand, non-specific binding with 1 uM ICS 205-930)?
Answer: 70%

Question: For `CN1[C@@H]2CC[C@H]1C[C@@H](OC(=O)c1c[nH]c3ccccc13)C2` [ICS 205-930], which gastric emptying (gastric emptying [3]) is on record?
Answer: enhanced

Question: What about the “guinea pig stomach muscle strip contraction in vitro” value [6] of the same compound?
Answer: enhanced

Question: And the “gastric emptying rates in vivo” value (gastric emptying [7])?
Answer: increases

Question: And the “effect on responses to cisapride when coadministered” value (dogs; Van Nueten et al. 1989, coadministered with cisapride)?
Answer: did not affect

Question: What about the “antroduodenal motility in dogs” value (dogs) of the same compound?
Answer: did not

Question: Which results are given for `CN1[C@@H]2CC[C@H]1C[C@@H](OC(=O)c1cc(Cl)cc(Cl)c1)C2` [MDL 72222]?
Answer: guinea pig stomach muscle strip contraction in vitro [6]: enhanced; gastric emptying rates in vivo (gastric emptying [7]): increases

Question: What does the source list for `NCCc1c[nH]c2ccc(O)cc12` [Serotonin, 5-hydroxytryptamine]?
Answer: peristalsis in the GI tract (GI tract): promote peristalsis; peristaltic reflex evoked, receptor mechanism (5-HT4 receptors): mediated through agonism at 5-HT4 receptors

Question: For `CCN(CC)CCNC(=O)c1cc(Cl)c(N)cc1OC` [metoclopramide], which “5-HT3-mediated Bezold Jarisch reflex” value (5-HT3) is on record?
Answer: blocks

Question: What about the “guinea pig stomach muscle strip contraction in vitro” value [6] of the same compound?
Answer: enhanced

Question: And the “electrical-field stimulated contractions in guinea pig stomach strips” value ([6]; Gunning and Naylor 1985)?
Answer: enhanced

Question: And the “gastric emptying rates in vivo” value (gastric emptying [7])?
Answer: increases

Question: With `COc1cc(N)c(Cl)cc1C(=O)NC1CN2CCC1CC2` (centres unmarked) [zacopride] as the compound, how does the gastric emptying (gastric emptying [3]) read?
Answer: enhanced
